Experiment in all cases: DTP human tumour cell line panel, 48 h
Experiment [1] concerns A549 NSCLC.
Experiment [2] concerns CAKI-1 renal.
Experiment [3] relates to HCT-116 colon.
In experiment [4] the test system is HOP-92 NSCLC.
For experiment [5], the system named is MDA-MB-231 breast.
Experiment [6] relates to MDA-MB-435.
Experiment [7] concerns MOLT-4 leukemia.
Experiment [8] deals with OVCAR-8 ovarian.
The test system of experiment [9] is SR leukemia.
Experiment [10] relates to CCRF-CEM leukemia.

The term TGI denotes the concentration at which net growth stops. A lower TGI goes with greater sensitivity of the cells. Usually GI50 stands for the concentration that inhibits growth by half.

Structures are written as SMILES. Values joined by “and” are separate entries in the source; they are usually repeats but may differ in a detail not shown here. Equal entries are not always repeated.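 Protocol summary: plate cells (96-well), add compound at 5 concentrations, incubate 48 h, interpolate endpoints linearly. GI50 = concentration required for 50% inhibition of growth. TGI: total growth inhibition.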

Turning to `CN(C)CN1C(=O)S/C(=C2\C(=O)N(CN(C)C)c3ccccc32)C1=O`, the TGI is greater than 100 µM in experiment [1]; 97.9 µM in [2]; greater than 100 µM in [3]; greater than 100 µM in experiment [4]; greater than 100 µM in experiment [5]; greater than 100 µM in [6]. The results for the TGI in experiment [7], in experiment [8] and in experiment [9] were 1.93 µM, greater than 100 µM and 45.3 µM, respectively.
For the molecule `O=C(Nc1ccc(Br)cc1)c1cc(Br)cc(Br)c1O`, the GI50 in experiment [1] was 2.65 µM; in experiment [2], 1.73 µM; in [10] it was 3.73 µM; in [3], 2.41 µM; in experiment [5], 2.08 µM; in experiment [6], 2.27 µM. For the same molecule, the GI50 in [7] is 3.83 µM; in experiment [8], 2.89 µM; in experiment [9], 3.87 µM. Moreover, the TGI was 7.9 µM in experiment [1]; 4.59 µM in experiment [2]; greater than 100 µM in experiment [10]; 8.31 µM in [3]; 6.28 µM in experiment [5]; 6.09 µM in [6]. In addition, the TGI in [7] was greater than 100 µM; in experiment [8] it was 11 µM; in experiment [9] it was greater than 100 µM.
Turning to `CN(C)CCNC(=O)c1cccc(CO)c1[N+](=O)[O-]`, the TGI in experiment [1], in experiment [2], in experiment [10], in experiment [3], in [5] and in experiment [6] was greater than 100 µM in each case. Moreover, the TGI in experiment [7], in experiment [8] and in experiment [9] was greater than 100 µM in each case.
`CC(O)C(NC(=O)C(CS)NC(=O)C(CO)NC(=O)C(CCCCN)NC(=O)C(Cc1c[nH]c2ccccc12)NC(=O)C(Cc1ccc(O)cc1)NC(=O)C(CS)NC(=O)C(N)Cc1ccccc1)C(N)=O` (stereo unspecified): the GI50 in experiment [1] was 18.7 µM; in experiment [2] it was 1.08 µM; in experiment [10] it was 19.7 µM; in experiment [3] it was 32.9 µM; in [9], 29.7 µM. The TGI in [1] is > 25 µM and 51.6 µM; in experiment [2], > 25 µM and 29.6 µM; in experiment [10] it was > 25 µM and 43.3 µM; in [3], greater than 100 µM; in experiment [5], greater than 25 µM; in experiment [6], greater than 25 µM. Further, the TGI was > 25 µM and 67.4 µM in experiment [7]; > 25 µM and 81.5 µM in [8]; > 25 µM and 86.5 µM in [9].
In the case of `O=C(/C=C/c1ccc([N+](=O)[O-])o1)NNC(=O)c1cc2ccccc2cc1O`, the GI50 in experiment [1] was 3.95 µM; in [2], 1.04 µM; in experiment [10], 0.441 µM; in experiment [3] it was 0.557 µM; in experiment [4], 2.75 µM; in experiment [5], 2.43 µM. Also, the values for the GI50 in experiment [6], in experiment [7] and in [8] were 0.644 µM, 0.97 µM and 1.11 µM, respectively. Also, the TGI in [1] is greater than 100 µM; in [10] it was greater than 100 µM; in [3], 1.72 µM; in [4], greater than 100 µM; in experiment [5], greater than 100 µM; in experiment [7] it was greater than 100 µM. This molecule showed a TGI in experiment [8] of 20.1 µM.
For the molecule `O=C1C=C(c2cc(Br)c(O)c(Br)c2)/C(=C/c2cc(Br)c(O)c(Br)c2)O1`, the GI50 is 11.2 µM in experiment [1]; 34.3 µM in [2]; 7.38 µM in experiment [10]; 14.8 µM in [3]; 15.4 µM in experiment [4]; 32 µM in experiment [5]. Also, the GI50 in experiment [6] was 33.6 µM; in [7], 18.4 µM; in [8], 29 µM. In addition, the concentration for total growth inhibition (TGI) is 49.3 µM in experiment [1]; greater than 75 µM in experiment [2]; 73.8 µM in experiment [10]; 43.8 µM in experiment [3]; greater than 75 µM in experiment [4]; greater than 75 µM in experiment [5]. Also, the TGI is greater than 75 µM in experiment [6], 51.9 µM in [7] and greater than 75 µM in [8].
For the molecule `NC(N)=N/N=C/c1c(-c2cc(Cl)sc2Cl)nc2n1CCS2`, the GI50 in [1] is 9.57 µM; in experiment [2], 12.8 µM; in experiment [10], 8.67 µM; in experiment [5], 7.64 µM; in experiment [6], 11.1 µM; in experiment [7], 10.4 µM. Moreover, the GI50 was 10.3 µM in experiment [8] and 8.04 µM in experiment [9]. Besides, the TGI was 22 µM in [1]; 23.2 µM in experiment [2]; 19.6 µM in experiment [10]; 15.6 µM in experiment [5]; 19.7 µM in experiment [6]; 26.8 µM in [7]. Further, the results for the TGI in [8] and in experiment [9] were 22.1 µM and 20.7 µM, respectively.
Regarding `CC1(C)C2CCC1C(=O)C(C=O)C2` (stereo unspecified), the TGI in experiment [1], in experiment [2], in experiment [10], in [3], in experiment [5] and in [6] was greater than 100 µM in each case. For the same molecule, the TGI in experiment [7] was greater than 100 µM; in experiment [8], greater than 100 µM; in experiment [9] it was 79.6 µM.
On to `NC(=O)c1ccccc1NC(=O)C(=O)C(c1cnc2ccc([N+](=O)[O-])cc2n1)[N+](=O)[O-]` (stereo unspecified), for which the TGI in experiment [1], in experiment [2], in [10], in experiment [3], in experiment [4] and in [5] was greater than 100 µM each time. Also, the TGI in experiment [6], in [7] and in experiment [8] was greater than 100 µM throughout.
Regarding `c1cc(-c2sc(-c3ccncc3)c(-c3ccncc3)c2-c2ccncc2)ccn1`, the TGI in experiment [1] was 45.8 µM; in [2], greater than 100 µM; in experiment [3], 28.5 µM; in experiment [4], 29.6 µM; in experiment [5] it was 31.2 µM; in [6] it was 33.4 µM. Besides, the TGI in experiment [7], in experiment [8] and in experiment [9] was greater than 100 µM each time.
On to `NC(N)=NNC(=O)C(=O)O`, for which the TGI in experiment [1], in [2], in experiment [10], in [3], in experiment [5] and in experiment [6] was greater than 100 µM in each case. Also, the TGI in [7], in experiment [8] and in experiment [9] was greater than 100 µM each time.
